Series [1] addresses T1, sex hormone binding globulin (SHBG) (Homo sapiens, UniProt P04278).
T1 sequence (P04278 30-402): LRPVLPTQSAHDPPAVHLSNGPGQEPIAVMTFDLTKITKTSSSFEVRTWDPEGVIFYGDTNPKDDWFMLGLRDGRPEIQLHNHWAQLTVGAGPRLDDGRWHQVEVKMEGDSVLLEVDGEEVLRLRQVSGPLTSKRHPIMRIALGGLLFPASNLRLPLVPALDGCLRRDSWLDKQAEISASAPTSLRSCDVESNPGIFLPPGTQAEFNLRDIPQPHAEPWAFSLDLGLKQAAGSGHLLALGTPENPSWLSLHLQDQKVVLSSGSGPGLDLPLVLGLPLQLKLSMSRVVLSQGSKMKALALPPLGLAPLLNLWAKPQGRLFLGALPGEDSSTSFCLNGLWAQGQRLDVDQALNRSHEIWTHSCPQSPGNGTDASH
The following applies: in vitro; cited from earlier work.

The subject of series [2] is DMBA mammary tumour. The following applies: DMBA mammary tumour model; extent and dose level similar to tamoxifen and ovariectomy; cited from earlier work.
In series [3] the test system is production of SHBG. The settings on record: in vitro; cited from earlier work.
For series [4] the following is noted: humans, cited from earlier work.
The subject of series [5] is human breast cancer cells. The following applies: in vitro; cited from earlier work.
A short description of series [6]: Randomized, open-label, two-period, cross-over pharmacokinetic study, sublingual versus oral estetrol. The class given is in vivo, human. The following applies: 10 mg estetrol, healthy female volunteers. The procedure:
A randomized, open-label, two-period, cross-over, pharmacokinetic study is conducted to compare sublingual bioavailability of 10 mg estetrol administered in one 80 mg tablet with oral availability of estetrol contained in a 83 mg tablet containing 10 mg estetrol. These tablets are administered sublingually and orally to healthy female volunteers under fasting conditions.
Ten healthy female subjects are selected on the basis of the following criteria: age of 45-65 years (inclusive), nonsmokers or past smokers (at least 6 months before dosing), body-mass index (BMI)=18.5 to 30 kg/m^2 (inclusive at the time of the screening).
At the start of the first and the second period of the study, between 07:00 am and 07:28 am, 5 subjects receive a single dose of the sublingual formulation of estetrol by administering one estetrol tablet (tablet weight 80 mg; 10 mg estetrol) and 5 subjects receive a single oral dose of the oral estetrol formulation by administering one estetrol tablet (tablet weight 83 mg; 10 mg estetrol), ingested together with 200 ml water. […]
The estetrol concentration in the collected blood samples is determined by means of HPLC/MS/MS. The concentrations of glucuronided estetrol (D-ring) in the urine samples is also determined with the help of HPLC/MS/MS.

The subject of series [7] is estrogen receptors. The following applies: in vitro; cited from earlier work.
The subject of series [8] is vagina, uterus, body weight, bone mass, bone strength, hot flushes, ovulation. The following applies: rat models; dose-dependent; cited from earlier work.

Structures are written as SMILES.

For the molecule `C[C@]12CC[C@@H]3c4ccc(O)cc4CC[C@H]3[C@@H]1[C@@H](O)[C@@H](O)[C@@H]2O` [estetrol, 1,3,5 (10)-estratrien-3,15α,16α,17β-tetrol], the “Binding to SHBG” value in series [1] is “does not bind”. Moreover, in series [2], the Tumour development entry is “prevented tumour development”. The “Stimulation of the production of SHBG” value in series [3] is given as “does not stimulate the production of SHBG”. Moreover, the Oral bioavailability result in series [4] (oral) was “high and dose-proportional”. Besides, the Terminal elimination half-life result in series [4] is “about 28 hours”. For the same molecule, the “Effect in the presence of 17β-estradiol” value in series [5] is listed as “anti-estrogenic effect”. Moreover, the “Bioavailability of sublingually administered estetrol versus orally administered estetrol” value in series [6] (80 mg sublingual tablet vs 83 mg oral tablet, fasting) is “comparable or even superior to orally administered estetrol”. In series [6] (sublingual), the “Impact on a liver function parameter, sublingual versus oral” value is “less impact on a liver function parameter”. The “Binding selectivity for estrogen receptors” value in series [7] was “binds highly selective to the estrogen receptors with preference for the ERα form of the receptor”. In series [8], the “Estrogenic effects on vagina, uterus, body weight, bone mass, bone strength, hot flushes and ovulation” value was “exhibited estrogenic effects”.

Values taken from patent US10888518B2, “Orodispersible tablet containing estetrol” (ESTETRA SPRL, priority 2015, dated 2021).
